Test results taken from US8697691B2, “Alkyl 3-((2-amidoethyl)amino)-8-azabicyclo[3.2.1]octane-8-carboxylate analogs as selective M1 agonists and methods of making and using same” (Vanderbilt University, priority 2009, dated 2014).
Read-outs that look alike come from different tables or passages of the source.

Molecular target: T1, human M1 receptor (Homo sapiens, UniProt P11229)
T1 construct: host or cells: CHO-K1
T1 sequence (P11229 1-460): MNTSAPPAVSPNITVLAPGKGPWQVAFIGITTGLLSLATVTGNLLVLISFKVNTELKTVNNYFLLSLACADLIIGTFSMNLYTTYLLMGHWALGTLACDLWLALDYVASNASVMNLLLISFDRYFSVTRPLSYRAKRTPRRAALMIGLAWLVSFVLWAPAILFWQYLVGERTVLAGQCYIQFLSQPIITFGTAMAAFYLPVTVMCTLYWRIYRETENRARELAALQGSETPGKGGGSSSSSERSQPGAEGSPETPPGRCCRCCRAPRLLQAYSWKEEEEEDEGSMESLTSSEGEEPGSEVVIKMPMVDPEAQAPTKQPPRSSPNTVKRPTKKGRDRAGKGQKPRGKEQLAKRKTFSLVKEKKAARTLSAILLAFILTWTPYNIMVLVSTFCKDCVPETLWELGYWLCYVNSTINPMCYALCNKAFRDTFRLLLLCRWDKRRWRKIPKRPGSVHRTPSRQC
Assay: Calcium mobilization assay, CHO-K1 cells stably expressing hM1 (high throughput, FDSS 6000)
Format: cell-based
Conditions: for Emax: CHO-K1, read-out: Efficacy (% Max ACh)
Excerpt: Chinese hamster ovary (CHO-K1) cells stably expressing rat (r)M1 were purchased from the American Type Culture Collection and cultured according to their indicated protocol. CHO cells stably expressing human (h)M2, hM3, and hM5 were described previously (Levey et al., 1991); hM1 and hM4 cDNAs were purchased from Missouri S&T cDNA Resource; rM4 cDNA was provided by T. I. Bonner (National Institutes of Health, Bethesda, Md.). hM1, hM4, and rM4 cDNAs were used to stably transfect CHO-K1 cells purchased from the American Type Culture Collection using Lipofectamine2000. To make stable hM2, hM4 and rM4 cell lines for use in calcium mobilization assays, these cells also were stably transfected with a chimeric G-protein (Gqi5) (provided by B. R. Conklin, University of California, San Francisco) using Lipofectamine 2000. rM1, hM3, and hM5 cells were grown in Ham's F-12 medium containing 10% heat-inactivated fetal bovine serum (FBS), 20 mM HEPES, and 50 μg/mL G418 sulfate. hM2-Gqi5 and hM4-Gqi5 cells were grown in the same medium also containing 500 μg/mL Hygromycin B. Stable rM4-Gqi5 cells were grown in DMEM containing 10% heat-inactivated FBS, 20 mM HEPES, 400 μg/mL G418 sulfate, and 500 μg/mL Hygromycin B. The rat M1 Y381A orthosteric mutant receptor cDNA was generated using the Quik-Change site-directed mutagenesis kit (Stratagene) and verified by sequencing. CHO-K1 cells were stably transfected with this cDNA using Lipofectamine2000 and screened for expression based on calcium mobilization in response to the allosteric M1 agonist N-desmethylclozapine.
For high throughput measurement of agonist-evoked increases in intracellular calcium, CHO-K1 cells stably expressing muscarinic receptors were plated in growth medium lacking G418 and hygromycin at 15,000 cells/20 μL/well (hM1, hM2-Gqi5, hM3, hM4-Gq15, and hM5) in Greiner 384-well black-walled, tissue culture (TC)-treated, clear-bottom plates (VWR). Cells were incubated overnight at 37° C. and 5% CO2. The next day, cells were washed using an ELX 405 (BioTek) with three washes (50 μL) of assay buffer then aspirated to 15 μL. Next, 5 μL of 8 μM Fluo-4/acetoxymethyl ester (Invitrogen, Carlsbad, Calif.) prepared as a 2.3 mM stock in DMSO and mixed in a 1:1 ratio with 10% (w/v) Pluronic F-127 and diluted in assay buffer was added to the wells and the cell plates were incubated for 45 min at 37° C. and 5% CO2. Dye was removed by washing with the ELX 405 (three 50 μL washes of assay buffer) then aspirated to 20 μL. Agonist and compound master plates were formatted in an 11 point CRC format (1:3 dilutions) in 100% DMSO with a starting concentration of 10 mM using the BRAVO liquid handler (Agilent). Test compound CRCs were then transferred to daughter plates ([…]) using the Echo acoustic plate reformatter (Labcyte, Sunnyvale, Calif.) and then diluted into assay buffer (40 μL) to a 2× stock using a Thermo Fisher Combi (Thermo Fisher Scientific, Waltham, Mass.). Calcium flux was measured using the Functional Drug Screening System (FDSS) 6000 (Hamamatsu Corporation, Tokyo, Japan) as an increase in the fluorescent static ratio. 20 μL of Agonist Compounds were applied to cells using the automated system of the FDSS 6000 at 4 s into the 300 s protocol and the data were collected at 1 Hz. Concentration-response curves were generated using a four-parameter logistical equation in XLfit curve fitting software (IDBS, Bridgewater, N.J.) for Excel (Microsoft, Redmond, Wash.) or Prism (GraphPad Software, Inc., San Diego, Calif.).

[1] = human M1, agonist-evoked calcium mobilization in CHO-K1 cells, read-out: Potency (EC50)

Structure (SMILES) | Emax | EC50 [1] | EC50
CCOC(=O)N1[C@@H]2CC[C@H]1C[C@H](NCCNC(=O)N1CCOCC1)C2 [Example 38, ethyl 3-((3-exo)-(2-(morpholine-4-carboxamido)ethyl)-amino)-8-azabicyclo[3.2.1]octane-8-carboxylate] | 37% | 3600 nM | –
CCOC(=O)N1[C@@H]2CC[C@H]1C[C@H](NCCNC(=O)c1ccc(F)cc1)C2 [Example 33, ethyl 3-((3-exo)-(2-(4-fluorobenzamido)ethyl)-amino)-8-azabicyclo[3.2.1]octane-8-carboxylate] | 48% | 1700 nM | –
CCOC(=O)N1[C@@H]2CC[C@H]1C[C@H](NCCNC(=O)c1cc(F)cc(F)c1)C2 [Example 36, ethyl 3-((3-exo)-(2-(3,5-difluorobenzamido)ethyl)-amino)-8-azabicyclo[3.2.1]octane-8-carboxylate] | 37% | 2600 nM | –
CC(C)OC(=O)N1C2CCC1CC(NCCNC(=O)c1ccccc1)C2 (stereo not drawn) [Example 37, isopropyl 3-((3-exo)-(2-benzamidoethyl)amino)-8-azabicyclo[3.2.1]octane-8-carboxylate] | 7% | – | –
CCOC(=O)N1[C@@H]2CC[C@H]1C[C@H](NCCNC(=O)c1ccccc1Cl)C2 [Example 42] | 25% | – | –
CCOC(=O)N1[C@@H]2CC[C@H]1C[C@H](NCCNC(=O)N1CCCCC1)C2 [Example 28, ethyl 3((3-exo)-(2-(piperidine-1-carboxamido)ethyl)amino)-8-azabicyclo[3.2.1]octane-8-carboxylate] | 46% | 700 nM | –
C=CCOC(=O)N1[C@@H]2CC[C@H]1C[C@H](NCCNC(=O)c1ccccc1)C2 [Example 30, allyl 3-((3-exo)-(2-benzamidoethyl)amino)-8-azabicyclo[3.2.1]octane-8-carboxylate] | 29% | – | –
CCOC(=O)N1[C@@H]2CC[C@H]1C[C@H](NCCNC(=O)c1cccc(Cl)c1)C2 [Example 35, ethyl 3-((3-exo)-(2-(3-chlorobenzamido)ethyl)-amino)-8-azabicyclo[3.2.1]octane-8-carboxylate] | 57% | 490 nM | –
CCOC(=O)N1[C@@H]2CC[C@H]1C[C@H](NCCNC(=O)C1CCCCC1)C2 [Example 34, ethyl 3-((3-exo)-(2-(cyclohexanecarboxamido)-ethyl)amino)-8-azabicyclo[3.2.1]octane-8-carboxylate] | 25% | 3200 nM | –
CCOC(=O)N1[C@@H]2CC[C@H]1C[C@H](NCCNC(=O)c1cccs1)C2 [Example 40, ethyl 3-((3-exo)-(2-(thiophene-2-carboxamido)ethyl)-amino)-8-azabicyclo[3.2.1]octane-8-carboxylate] | 15% | – | 2100 nM
CCOC(=O)N1C2CCC1CC(NCCNC(=O)N1[C@H](C)CCC[C@@H]1C)C2 (stereo partly drawn) [Example 32] | 26% | – | –
CCOC(=O)N1[C@@H]2CC[C@H]1C[C@H](NCCNC(=O)c1ccccc1C)C2 [Example 31, ethyl 3-((3-exo)-(2-(2-methylbenzamido)ethyl)-amino)-8-azabicyclo[3.2.1]octane-8-carboxylate] | 38% | – | 2500 nM
CCOC(=O)N1[C@@H]2CC[C@H]1C[C@H](NCCNC(=O)c1ccc(F)c(F)c1)C2 [Example 39, ethyl 3-((3-exo)-(2-(3,4-difluorobenzamido)ethyl)-amino)-8-azabicyclo[3.2.1]octane-8-carboxylate] | 46% | 1400 nM | –
COC(=O)N1C2CCC1CC(NCCNC(=O)c1ccccc1)C2 (stereo not drawn) [Example 29, methyl 3-((3-exo)-(2-benzamidoethyl)amino)-8-azabicyclo[3.2.1]octane-8-carboxylate] | 7% | – | –
CCOC(=O)N1C2CCC1CC(NCCNC(=O)c1cccc(OC)c1)C2 (stereo not drawn) [Example 41, ethyl 3-((3-exo)-(2-(3-methoxybenzamido)ethyl)-amino)-8-azabicyclo[3.2.1]octane-8-carboxylate] | 19% | – | –
